Some test systems named below: CCRF-CEM leukemia; HS 578T breast; LOX IMVI melanoma; A498 renal; HCT-116 colon; A549 NSCLC; BT-549 breast; RXF 393 renal; SR leukemia; T-47D breast.
What all share (assay): growth of human tumour cells (NCI), 48 h

Several values for one entry are separate records, joined by “and”; a condition that tells them apart may be missing. Equal entries are not always repeated.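 Exposure lasted 48 hours, with cells grown in 96-well plates and compounds tested at five concentrations. GI50 = concentration required for 50% inhibition of growth. TGI denotes the concentration required for complete inhibition of growth.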 Where only a bound is given, the exact number is not on record here.

For three molecules, GI50 and TGI results are on record in PubChem BioAssay (NCI).

`CCN(CC)CCOc1ccc(NC(=O)C(C(C)C)N2C(=O)/C(=C/c3ccc(Br)cc3)SC2=S)cc1` (configuration not stated): the GI50 with CCRF-CEM leukemia was 2820 nM; in the test with HS 578T breast, 12.1 µM; with LOX IMVI melanoma, 1750 nM; in the test on A498 renal, 1520 nM; in the test with HCT-116 colon, 1860 nM; with A549 NSCLC it was 3.37 µM. Also, the GI50 with BT-549 breast is 14.4 µM; in the test on RXF 393 renal, 5.6 µM; in the test on SR leukemia it was 2160 nM; in the test on T-47D breast it was 3.63 µM. Further, the TGI with CCRF-CEM leukemia was 9520 nM; in the test on HS 578T breast, 35.1 µM; in the test with LOX IMVI melanoma it was 3230 nM; in the test on A498 renal, 14.6 µM; with HCT-116 colon, 3470 nM; in the test with A549 NSCLC, 12.5 µM. The TGI with BT-549 breast was determined as 28.5 µM; in the test with RXF 393 renal, 19.1 µM; with SR leukemia, 6.43 µM; with T-47D breast it was 19 µM.
Take `CN(C)C[C@@H]1CCn2cc(c3ccccc32)C2=C(C(=O)NC2=O)c2cn(c3ccccc23)CCO1`: the GI50 in the test on CCRF-CEM leukemia was 459 nM; with HS 578T breast it was 1.76 µM; in the test on LOX IMVI melanoma it was 1630 nM; in the test with A498 renal it was 1130 nM; with HCT-116 colon, 374 nM; in the test on A549 NSCLC it was 2.72 µM. The GI50 in the test on BT-549 breast was 1.41 µM; in the test with RXF 393 renal, 1.77 µM; in the test with SR leukemia, 1680 nM; in the test on T-47D breast, 0.828 µM. The TGI in the test on CCRF-CEM leukemia is 2730 nM; with HS 578T breast it was 8.88 µM; in the test with LOX IMVI melanoma, 3440 nM; in the test with A498 renal, 4.54 µM; in the test on HCT-116 colon, 1560 nM; in the test with A549 NSCLC, over 10 µM. The TGI in the test on BT-549 breast was 9.57 µM; in the test on RXF 393 renal, 5.17 µM; with SR leukemia, 5.55 µM; in the test with T-47D breast it was over 10 µM.
For the molecule `C=C1C(=O)O[C@H]2C3OC3(C)CC/C=C(/C(=O)OC)[C@@H](OC(C)=O)[C@H](OC(=O)C3(C)OC3C)[C@H]12` (some centres not stated), the GI50 in the test with CCRF-CEM leukemia is 173 nM and 231 nM; in the test on LOX IMVI melanoma, 1360 nM and 1240 nM; in the test with A498 renal, 1.69 µM and 2.85 µg/mL; in the test on HCT-116 colon it was 1.17 µM and 668 nM and 0.444 µg/mL; with A549 NSCLC, 9.7 µM and 12.5 µM and 5.5 µg/mL; in the test with RXF 393 renal, 364 nM and 190 nM and 0.407 µg/mL. In addition, the GI50 in the test with SR leukemia is 248 nM; in the test on T-47D breast, 4.6 µM. Besides, the TGI in the test on CCRF-CEM leukemia was 461 nM and 1150 nM; with HS 578T breast, 24.4 µM; with LOX IMVI melanoma it was 2740 nM and 2700 nM; in the test with A498 renal, 4.26 µM and 5.4 µg/mL; with HCT-116 colon, 2.39 µM and 1.67 µM and 1.19 µg/mL; in the test on A549 NSCLC, 31.6 µM and 17.5 µg/mL. The TGI was 2.27 µM with BT-549 breast; 838 nM and 531 nM and 0.951 µg/mL in the test with RXF 393 renal; 0.664 µM and 1.27 µM in the test with SR leukemia.
